Source: article PMC8185074, “Anchor extension: a structure-guided approach to design cyclic peptides targeting enzyme active sites” (Nature Communications, 2021)
Peptide text beside a SMILES is read from it.

Tests used:
Type in all cases: biochemical
HDAC6 = biological target: T1, HDAC6 (Homo sapiens, UniProt Q9UBN7); assay: HDAC6 inhibition, full IC50 measurement (Reaction Biology; fluorogenic p53 peptide RHKK(Ac)AMC)
T1 construct: purchased Reaction Biology Corporation (assay run by the CRO)
T1 sequence (Q9UBN7 1-1215): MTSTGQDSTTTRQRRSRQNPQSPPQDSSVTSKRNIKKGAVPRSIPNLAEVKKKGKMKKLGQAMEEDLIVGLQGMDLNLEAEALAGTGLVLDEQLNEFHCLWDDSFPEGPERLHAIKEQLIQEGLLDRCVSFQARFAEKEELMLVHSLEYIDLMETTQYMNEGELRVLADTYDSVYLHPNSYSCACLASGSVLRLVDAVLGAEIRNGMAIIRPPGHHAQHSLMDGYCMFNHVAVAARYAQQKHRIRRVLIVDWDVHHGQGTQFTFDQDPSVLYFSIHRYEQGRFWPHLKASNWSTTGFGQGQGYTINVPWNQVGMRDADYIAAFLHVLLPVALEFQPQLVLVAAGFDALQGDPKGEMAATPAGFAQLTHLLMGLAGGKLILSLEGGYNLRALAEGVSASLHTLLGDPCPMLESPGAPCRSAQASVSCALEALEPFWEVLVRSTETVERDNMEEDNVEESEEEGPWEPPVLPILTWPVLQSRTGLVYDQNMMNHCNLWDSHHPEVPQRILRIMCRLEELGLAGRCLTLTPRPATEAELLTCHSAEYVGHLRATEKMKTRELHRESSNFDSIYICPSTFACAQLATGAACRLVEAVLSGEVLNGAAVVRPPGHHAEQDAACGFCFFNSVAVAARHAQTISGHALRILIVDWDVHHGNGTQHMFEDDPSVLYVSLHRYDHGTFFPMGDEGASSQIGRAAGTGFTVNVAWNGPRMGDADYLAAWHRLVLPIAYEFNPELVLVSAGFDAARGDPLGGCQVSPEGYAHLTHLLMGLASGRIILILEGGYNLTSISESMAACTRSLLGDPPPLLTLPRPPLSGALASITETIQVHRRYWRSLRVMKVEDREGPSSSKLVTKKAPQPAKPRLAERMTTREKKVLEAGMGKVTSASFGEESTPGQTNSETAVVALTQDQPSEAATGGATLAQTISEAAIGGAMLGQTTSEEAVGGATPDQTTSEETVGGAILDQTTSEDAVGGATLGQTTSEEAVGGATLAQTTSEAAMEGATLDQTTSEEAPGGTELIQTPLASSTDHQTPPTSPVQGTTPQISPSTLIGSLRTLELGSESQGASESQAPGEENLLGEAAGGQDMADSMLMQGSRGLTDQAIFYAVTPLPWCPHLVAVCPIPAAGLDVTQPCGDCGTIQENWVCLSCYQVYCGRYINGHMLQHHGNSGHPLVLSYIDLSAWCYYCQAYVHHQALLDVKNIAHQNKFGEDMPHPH
How it was run: (§1)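 Inhibitory peptides were acoustically dispensed with enzyme, then substrate added; 1 h at 30 °C. Developer stopped reaction; plateau endpoint fluorescence (360/460 nm) gave IC50.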

HDAC1 = biological target: T2, HDAC1 (Homo sapiens, UniProt Q13547); assay: HDAC1 inhibition, full IC50 measurement (Reaction Biology; fluorogenic p53 peptide RHKK(Ac)AMC); details: t1/t2 replicates
T2 construct: purchased Reaction Biology Corporation (assay run by the CRO)
T2 sequence (Q13547 whole entry): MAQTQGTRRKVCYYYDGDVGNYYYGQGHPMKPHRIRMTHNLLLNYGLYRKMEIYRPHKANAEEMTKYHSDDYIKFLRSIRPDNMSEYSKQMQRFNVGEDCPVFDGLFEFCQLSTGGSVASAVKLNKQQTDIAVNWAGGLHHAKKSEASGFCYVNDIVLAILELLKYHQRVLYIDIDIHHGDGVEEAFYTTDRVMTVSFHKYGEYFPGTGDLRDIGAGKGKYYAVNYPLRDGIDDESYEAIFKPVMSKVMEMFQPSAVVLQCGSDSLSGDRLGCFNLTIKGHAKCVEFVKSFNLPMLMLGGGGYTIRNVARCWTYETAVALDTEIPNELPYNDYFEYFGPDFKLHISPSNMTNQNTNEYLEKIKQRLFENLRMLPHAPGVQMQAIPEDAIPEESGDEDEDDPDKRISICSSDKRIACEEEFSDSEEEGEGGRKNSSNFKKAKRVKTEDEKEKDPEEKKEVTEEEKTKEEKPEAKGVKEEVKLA
How it was run: as §1

HDAC8 = biological target: T3, HDAC8 (Homo sapiens, UniProt Q9BY41); assay: HDAC8 inhibition, full IC50 measurement (Reaction Biology; fluorogenic p53 peptide RHKK(Ac)AMC); details: t1/t2 replicates
T3 construct: purchased Reaction Biology Corporation (assay run by the CRO)
T3 sequence (Q9BY41 1-377): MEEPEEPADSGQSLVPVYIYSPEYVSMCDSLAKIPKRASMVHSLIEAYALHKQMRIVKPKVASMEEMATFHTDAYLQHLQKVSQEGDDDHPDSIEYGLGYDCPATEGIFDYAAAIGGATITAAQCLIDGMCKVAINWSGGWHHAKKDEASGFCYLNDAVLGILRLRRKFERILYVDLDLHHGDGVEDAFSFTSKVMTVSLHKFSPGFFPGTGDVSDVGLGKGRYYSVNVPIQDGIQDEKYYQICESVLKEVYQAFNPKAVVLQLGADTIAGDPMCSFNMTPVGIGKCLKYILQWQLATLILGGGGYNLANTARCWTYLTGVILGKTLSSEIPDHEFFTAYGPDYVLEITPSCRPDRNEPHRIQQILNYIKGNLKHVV
How it was run: as §1

[1] = peptide conc. 1.00E-05 M, listed as des4.1.0_t1
[2] = peptide conc. 1.00E-05 M, listed as des4.1.0_t2
[3] = peptide conc. 1.11E-06 M, listed as des4.1.0_t1
[4] = peptide conc. 1.11E-06 M, listed as des4.1.0_t2
[5] = peptide conc. 1.23E-07 M, listed as des4.1.0_t1
[6] = peptide conc. 1.23E-07 M, listed as des4.1.0_t2
[7] = peptide conc. 1.37E-08 M, listed as des4.1.0_t1
[8] = peptide conc. 1.37E-08 M, listed as des4.1.0_t2
[9] = peptide conc. 1.52E-09 M, listed as des4.1.0_t1
[10] = peptide conc. 1.52E-09 M, listed as des4.1.0_t2
[11] = peptide conc. 3.33E-06 M, listed as des4.1.0_t1
[12] = peptide conc. 3.33E-06 M, listed as des4.1.0_t2
[13] = peptide conc. 3.70E-07 M, listed as des4.1.0_t1
[14] = peptide conc. 3.70E-07 M, listed as des4.1.0_t2
[15] = peptide conc. 4.12E-08 M, listed as des4.1.0_t1
[16] = peptide conc. 4.12E-08 M, listed as des4.1.0_t2
[17] = peptide conc. 4.57E-09 M, listed as des4.1.0_t1
[18] = peptide conc. 4.57E-09 M, listed as des4.1.0_t2
[19] = peptide conc. 5.08E-10 M, listed as des4.1.0_t1
[20] = peptide conc. 5.08E-10 M, listed as des4.1.0_t2

N=C(N)NCCC[C@@H]1NC(=O)[C@H](Cc2c[nH]c3ccccc23)NC(=O)[C@H](CC(=O)O)NC(=O)[C@@H](CO)NC(=O)[C@H](Cc2c[nH]c3ccccc23)NC(=O)[C@H](CCCCCS)NC(=O)[C@H](CCC(N)=O)NC1=O [des4.1.0, SHA-Trp-dSer-Asp-Trp-Arg-Gln] (HELM PEPTIDE1{D.W.R.Q.[O=C([C@H](CCCCCS)N[*:1])[*:2]].W.[dS]}$PEPTIDE1,PEPTIDE1,1:R1-7:R2$$$V2.0)
HDAC6 activity raw data (signal) (HDAC6; Conc. 1.00E-05 M, t1): 7877 | HDAC6 activity raw data (signal) (HDAC6; Conc. 1.00E-05 M, t2): -8060 | HDAC6 activity raw data (signal) (HDAC6; Conc. 1.11E-06 M, t1): 16871 | HDAC6 activity raw data (signal) (HDAC6; Conc. 1.11E-06 M, t2): 12343 | HDAC6 activity raw data (signal) (HDAC6; Conc. 1.23E-07 M, t1): 204372 | HDAC6 activity raw data (signal) (HDAC6; Conc. 1.23E-07 M, t2): 163263 | HDAC6 activity raw data (signal) (HDAC6; Conc. 1.37E-08 M, t1): 1871464 | HDAC6 activity raw data (signal) (HDAC6; Conc. 1.37E-08 M, t2): 1633652 | HDAC6 activity raw data (signal) (HDAC6; Conc. 1.52E-09 M, t1): 2518833 | HDAC6 activity raw data (signal) (HDAC6; Conc. 1.52E-09 M, t2): 2655286 | HDAC6 activity raw data (signal) (HDAC6; Conc. 3.33E-06 M, t1): 8242 | HDAC6 activity raw data (signal) (HDAC6; Conc. 3.33E-06 M, t2): -3634 | HDAC6 activity raw data (signal) (HDAC6; Conc. 3.70E-07 M, t1): 49535 | HDAC6 activity raw data (signal) (HDAC6; Conc. 3.70E-07 M, t2): 45420 | HDAC6 activity raw data (signal) (HDAC6; Conc. 4.12E-08 M, t1): 772837 | HDAC6 activity raw data (signal) (HDAC6; Conc. 4.12E-08 M, t2): 534957 | HDAC6 activity raw data (signal) (HDAC6; Conc. 4.57E-09 M, t1): 2466106 | HDAC6 activity raw data (signal) (HDAC6; Conc. 4.57E-09 M, t2): 2168070 | HDAC6 activity raw data (signal) (HDAC6; Conc. 5.08E-10 M, t1): 2603168 | HDAC6 activity raw data (signal) (HDAC6; Conc. 5.08E-10 M, t2): 2401605 | HDAC1 activity raw data (signal) (HDAC1; [1]): 765 | HDAC1 activity raw data (signal) (HDAC1; [2]): 43 | HDAC1 activity raw data (signal) (HDAC1; [3]): 72647 | HDAC1 activity raw data (signal) (HDAC1; [4]): 40074 | HDAC1 activity raw data (signal) (HDAC1; [5]): 531723 | HDAC1 activity raw data (signal) (HDAC1; [6]): 406309 | HDAC1 activity raw data (signal) (HDAC1; [7]): 925044 | HDAC1 activity raw data (signal) (HDAC1; [8]): 865901 | HDAC1 activity raw data (signal) (HDAC1; [9]): 1099796 | HDAC1 activity raw data (signal) (HDAC1; [10]): 1072226 | HDAC1 activity raw data (signal) (HDAC1; [11]): 17702 | HDAC1 activity raw data (signal) (HDAC1; [12]): 11850 | HDAC1 activity raw data (signal) (HDAC1; [13]): 193534 | HDAC1 activity raw data (signal) (HDAC1; [14]): 155666 | HDAC1 activity raw data (signal) (HDAC1; [15]): 733473 | HDAC1 activity raw data (signal) (HDAC1; [16]): 658176 | HDAC1 activity raw data (signal) (HDAC1; [17]): 1015864 | HDAC1 activity raw data (signal) (HDAC1; [18]): 988230 | HDAC1 activity raw data (signal) (HDAC1; [19]): 1225387 | HDAC1 activity raw data (signal) (HDAC1; [20]): 1041994 | HDAC8 activity raw data (signal) (HDAC8; [1]): 100967 | HDAC8 activity raw data (signal) (HDAC8; [2]): 38752 | HDAC8 activity raw data (signal) (HDAC8; [3]): 234716 | HDAC8 activity raw data (signal) (HDAC8; [4]): 226734 | HDAC8 activity raw data (signal) (HDAC8; [5]): 803512 | HDAC8 activity raw data (signal) (HDAC8; [6]): 713240 | HDAC8 activity raw data (signal) (HDAC8; [7]): 943537 | HDAC8 activity raw data (signal) (HDAC8; [8]): 964221 | HDAC8 activity raw data (signal) (HDAC8; [9]): 948817 | HDAC8 activity raw data (signal) (HDAC8; [10]): 953073 | HDAC8 activity raw data (signal) (HDAC8; [11]): 100659 | HDAC8 activity raw data (signal) (HDAC8; [12]): 171679 | HDAC8 activity raw data (signal) (HDAC8; [13]): 597298 | HDAC8 activity raw data (signal) (HDAC8; [14]): 553055 | HDAC8 activity raw data (signal) (HDAC8; [15]): 940975 | HDAC8 activity raw data (signal) (HDAC8; [16]): 825924 | HDAC8 activity raw data (signal) (HDAC8; [17]): 958670 | HDAC8 activity raw data (signal) (HDAC8; [18]): 869070 | HDAC8 activity raw data (signal) (HDAC8; [19]): 1026116 | HDAC8 activity raw data (signal) (HDAC8; [20]): 927553
